Reference: US20210015793A1, “COMPOUNDS FOR TREATING CNS- AND NEURODEGENERATIVE DISEASES” (ETH ZURICH, priority 2018, published 2021)

Columns and labels:
[1] = 28-day repeated oral dosing safety in German shepherd dogs; assay type: in vivo, dog; conditions: dogs
Method: (§1) Dog serum concentrations of Compound-1, Compound-1F and Compound-4 were determined with serum isolated from the blood of German shepherd dogs (age: 8-9 months) taken at different time points (2 h, 4 h, 6 h, 8, 10 h, 24 h) after oral drug intake. The steady-state serum concentrations of Compound-1, Compound-1F and Compound-4 were determined in mice with blood isolated at the end of the study by cardiac puncture. Serum proteins were removed by acetonitrile precipitation, and compounds were extracted by chloroform before separation on an HPLC-C18 column (Poroshell 120 EC-C18, Agilent) with an HPLC system (Agilent 1100 Series) and detection at OD 280 nm, for Compound-1 and Compound-1F. Detection of Compound-4 was performed at OD 310 nm. The same extraction method was also used to determine Compound-1F in the serum of healthy human research participants. Dog hematology and biochemical parameters were determined by the Center of Applied Analytical and Veterinary Studies, Cairo, Egypt. ECG and blood pressure were measured by Dr. Mohamed Elsaed, Electrocardiography Unit, Faculty of Veterinary Medicine, Cairo University. The study was approved by the ethical committee of the Center of Applied and Veterinary Studies, Cairo, Egypt. Clinical laboratory parameters of human research participants were determined by the Rabaa El Adaweya Medical Central Hospital, Cairo, Egypt.

[2] = Serum concentration by HPLC in dogs after oral dosing; assay type: in vivo, dog; conditions: dogs
Method: as §1

[3] = repeated oral dosing 28 days, 200 mg daily

## c1cc(-c2ccc3c(c2)OCO3)ncn1 [Compound-4, 4-(1,3-benzodioxol-5-yl)pyrimidine]
[1]; 28 days
  blood pressure and heart rate before vs after drug intake: not different
[1]; 28 days at 120, 200 and 300 mg per day
  clinical laboratory parameters: within the normal range
[1]; therapeutic dose range
  tolerability: excellent tolerability
[2]; doses of 120 mg, 200 mg and 300 mg, 28 days
  dose dependence of peak serum levels at 2 h after drug intake: dose-dependent increase
[2]; oral treatment
  oral bioavailability: good oral bioavailability
[2]; [3]
  serum concentration at t=8 h after intake: undetectable
  time to peak serum level after drug intake: 2 h
[2]; repeated oral dosing 28 days, daily dose of 200 mg
  peak serum concentration: 0.56 ± 0.10 µg/mL
